In US10898548B2, “Modulators of protein tyrosine phosphatase and uses thereof” (LEUVAS THERAPEUTICS, priority 2015, dated 2021):
Marks after values point to notes of the source that are not given here.

Assays:
[1] = test system: Hbb^th3/+ mice (β-thalassemia model); experiment: percent of soluble alpha globin in red cells; type: in vivo, mouse; conditions: TAT-ICD 5 mg/kg i.p once every other day for 3 weeks
Excerpt: We also observed a significant improvement in the α/β globin ratio with treatment of beta-thalassemic mice, a key measure of successful treatment of beta-thalassemia. The mutations in the beta-globin gene in beta-thalassemia results in absent or reduced synthesis of beta-globin chains leading to unbalanced globin chain synthesis and unpaired alpha-chain that form highly toxic aggregates in erythroid progenitors and red blood cells, and can be measured as a decrease in soluble alpha globulin. We measured the amount of soluble vs insoluble globulin not bound to heme (Table 38) and observed a significant (P<0001; 2 tailed T test) decrease in the percent of soluble alpha-globin in the beta-thalassemic mice compared to wild type mice (Table 38).

[2] = test system: Hbb^th3/+ mice (β-thalassemia model); experiment: bone marrow erythroid precursors by flow cytometry (CD44, TER119); type: in vivo, mouse; conditions: for percent of bone marrow erythroid precursors (fsc high CD44+TER119+ cells), Mean: ICD-Treated, 3 weeks
Method: Wild-type C57BL/6J mice and the mouse model for β-thalassemia (designated as Hbb^th3/+) were used for these studies. Flow cytometric analysis and sorting of mouse bone marrow and spleen precursors were performed using standard protocols using markers for CD44 and TER119 and cell size (forward scatter) to distinguish erythroid precursors at each distinct developmental stage. Forward scatter high-CD44+Ter119+ cells represents total erythroblasts (or erythroid mass in bone marrow or spleen). These erythroblasts can be further analyzed and sorted in subpopulations: population I: pro-erythroblasts; population II: basophilic erythroblasts; population III: polychromatic erythroblasts; population IV: orthochromatic erythroblasts, as described in Matte et al 2015, Antioxid. Redox Signal. 2015 23(16):1284-1297. Population II, III and IV corresponding to basophilic erythroblasts, polychromatic erythroblasts and orthochromatic erythroblasts were sorted from bone marrow as previously described (Matte et al 2015 Antioxid. Redox Signal. 2015 23(16):1284-1297).
Ineffective erythropoiesis in β-thalassemia is characterized by a block in cell maturation with accumulation of erythroid precursors and increased cell apoptosis in late phase erythropoiesis in the bone marrow.
Treatment of Hbb^th3/+ mice with PTPRG ICD results in a statistically significant increases in the percent of proerythroblasts (P<0.001) back to normal levels (5.9+/−0.6). In addition, ROS levels, which are increased in all four populations in Hbb mice compared to wild type mice are decreased PTPRG ICD-treated mice in all four populations, in agreement with the decrease in ROS levels in circulating red cells (Table 39).

## TAT-ICD: fusion recombinant protein SEQ ID 5: PTPRG intracellular domain aa 797-1445 fused to 13 aa TAT sequence
[1]; Hbb^th3/+ mice, Vehicle-treated 87.9
  percent of soluble alpha globulin: 92.5* %
[1]; Wild-type mice, Vehicle-treated 98.4
  percent of soluble alpha globulin: 97.9%
[2]; Hbb^th3/+ mice
  percent of bone marrow erythroid precursors (fsc high CD44+TER119+ cells), Mean: 23.8* percent
[2]; Wild-type mice
  percent of bone marrow erythroid precursors (fsc high CD44+TER119+ cells), Mean: 13.9%
[2]; treated Hbb^th3/+ mice, untreated Hbb^th3/+ 3.6+/−0.9, wild-type 6.5+/−0.9
  percent of pro-erythroblasts (population I) in bone marrow: 5.9+/−0.6%
